For three molecules, IC50 results are on record in US5668159A, “1,3,4-thiadiazoles and 1,3,4-oxadiazoles as IIb/IIIa antagonists” (The DuPont Merck Pharmaceutical Company, priority 1996, dated 1997).

Counter-ions that a name gives are not always drawn.

This assay concerns platelet aggregation (platelet rich plasma (PRP)). Briefly: Platelet Aggregation Assay (inhibition of agonist-induced platelet aggregation in platelet rich plasma). The format is cell-based. The note with it: with esterase, ester prodrugs preincubated with 100 IU/mL porcine liver esterase 2 hours at 37° C., human PRP, 100 μM ADP, read-out: Platelet Aggregation Assay IC50 (with esterase). The procedure: Platelet Aggregation Assay: Venous blood was obtained from the arm of a healthy human donor who was drug-free and aspirin-free for at least two weeks prior to blood collection. Blood was collected into 10 mL citrated Vacutainer tubes. The blood was centrifuged for 15 minutes at 150× g at room temperature, and platelet-rich plasma (PRP) was removed. The remaining blood was centrifuged for 15 minutes at 1500× g at room temperature, and platelet-poor plasma (PPP) was removed. Samples were assayed on a aggregometer (PAP-4 Platelet Aggregation Profiler), using PPP as the blank (100% transmittance). 200 μL of PRP was added to each micro test tube, and transmittance was set to 0%. 20 μL of various agonists (ADP, collagen, arachidonate, epinephrine, thrombin) were added to each tube, and the aggregation profiles were plotted (% transmittance versus time). The results are expressed as % inhibition of agonist-inducedplatelet aggregation. For the IC50 evaluation, the test compounds were added at various concentrations prior to the activation of the platelets.
Ester prodrugs were preincubated (10^-3 M F.C.) with 100 IU/mL Porcine liver esterase (Sigma Chemical Co., St. Louis, Mo., #E-3128) for 2 hours at 37° C. Aliquots are then diluted in 0.1M Tris, p H 7.4, to the desired concentrations. Aliquots of 20 μl of the esterase pretreated prodrugs are added to 200 μl of human platelet rich plasma. Samples were placed in platelet profiler (aggregometer) for 8 minutes at 37° C., followed by the addition of 100 μM Adenosine Diphosphate, (Sigma Chemical Co., St. Louis, Mo., #A-6521), to induce platelet aggregation. Platelet aggregation was allowed to proceed for 5 minutes. Percent inhibition is calculated using percent aggregation in the presence of the test compound divided by percent aggregation of control, times 100. This value is subtracted from 100, yielding percent inhibition. Calculation of IC50 is performed on a Texas Instruments TI59 with an IC50 program.
Table A below sets forth the antiplatelet activity of representative compounds of the present invention. The indicated compounds were tested for their ability to inhibit platelet aggregation (using platelet rich plasma (PRP)). The IC50 value (the concentration of antagonist which inhibits platelet aggregation by 50% relative to a control lacking the antagonist) is shown. In Table A the IC50 values are expressed as: +++=IC50 of <10 μM; ++=IC50 of […]; +=IC50 of 50-100 μM (μM=micromolar).
Turning to `COC(=O)[C@H](Cc1ccccc1)NC(=O)CSc1nnc(-c2ccc(NC(=N)N)cc2)o1` [Example 392, Methyl N-[2-{2-(4-guanidinophenyl)-1,3,4-oxadiazol-5-ylthio}-acetyl]-(S)-phenylalanine TFA salt], the IC50 was 10 to 50 µM.

With `CCOC(=O)[C@H](Cc1ccccc1)NC(=O)CSc1nnc(-c2ccc(C(=N)N)cc2)o1` [Example 399, Ethyl N-[2-{2-(4-amidinophenyl)-1,3,4-oxadiazol-5-ylthio}-acetyl]-(S)-phenylalanine HCl salt], the IC50 fell in the range of 10 to 50 µM.

`CCCCOC(=O)NC[C@H](NC(=O)CSc1nnc(-c2ccc(C(=N)N)cc2)s1)C(=O)OC` [Example 440, Methyl N^2-[2-{2-(4-amidinophenyl)-1,3,4-thiodiazol-5-ylthio}-acetyl]-N^3-(n-butyloxycarbonyl)-2,3-(S)-diaminopropionate HCl salt]: the IC50 is less than 10 µM.
